# Results published in patent US8962685B2 (Vireo Systems Inc., priority 2003, dated 2015).
# Tests used:
# [1] = Plasma uptake and relative bioavailability after oral administration in healthy human volunteers (Example 3); details: for Plasma creatine following administration: oral 5 gram dose, versus pre-dose
# Source text: The order of treatment was randomly assigned and there was a 1-week wash out period between creatine treatments.
# [2] = Stability of creatine in aqueous solution over 45 days (Example 4)
# Source text: With regard to latent product storage, standard shelf-life according to the FDA is considered to be the time it takes for 10 percent of the starting material to degrade in a given sample. […] Each data point is representative of three different samples. […] The creatine content of each sample was examined over a 45-day period.
# [3] = cited from earlier work
SMILES,"increase in bioavailability ([1]; in vivo, po)",Plasma creatine following administration [1],shelf-life in aqueous solution (time for 10 percent to degrade) ([2]; 1.5 mg/mL),"original creatine remaining in the aqueous solution ([2]; buffer, 1080 h, 1.5 mg/mL)",standard degradation time in water [3],"original creatine remaining in the aqueous solution ([2]; room temperature (about 21° C.), 45 days, initially 1.5 mg/mL)"
"CN(CC(=O)O)C(=N)N.Cl [creatine HCl, creatine hydrochloride]",approximately 50%,significantly elevated,≥ 45 days,approximately 95%,,
CCOC(=O)CN(C)C(=N)N [creatine ethyl ester],,,,,less than one,
CN(CC(=O)O)C(=N)N.O [creatine monohydrate],,significantly elevated,,,,about 75%
